Measurements published in patent US5143911A, “Antibiotic C-3 di-hydroxyphenyl substituted cephalosporin compounds, compositions and method of use thereof” (Bristol-Myers Squibb Company, priority 1990, dated 1992).
Converted amounts (≈) assume the structure as drawn.

Experiments:
S. epidermidis 11-1168 = assay type: cell-based; conditions: Staphylococcus epidermidis, 111168, pH 7.2, 32° C. 18 hr, 10^6 cells/ml
E. faecium A24817 = assay type: cell-based; conditions: Enterococcus faecium, pH 7.2, 32° C. 18 hr, 10^6 cells/ml
P. vulgaris IPM-13 = assay type: cell-based; conditions: Proteus vulgaris, IPM13, pH 7.2, 32° C. 18 hr, 10^6 cells/ml
P. aeruginosa A20599 = assay type: cell-based; conditions: Pseudomonas aeruginosa, pH 7.2, 32° C. 18 hr, 10^6 cells/ml
P. cepacia A21213 = assay type: cell-based; conditions: Burkholderia cepacia, pH 7.2, 32° C. 18 hr, 10^6 cells/ml
S. aureus 209P = conditions: Staphylococcus aureus, 18 h, pH 7.2
S. aureus Smith = conditions: Staphylococcus aureus, 18 h, pH 7.2
S. aureus 4-1015 (MRSA) = conditions: Staphylococcus aureus, 18 h, pH 7.2
S. aureus IPM-24 (MRSA) = conditions: Staphylococcus aureus, 18 h, pH 7.2
S. epidermidis 11-1230 = conditions: Staphylococcus epidermidis, 111230, 18 h, pH 7.2
E. faecalis A9808 = conditions: Enterococcus faecalis, A9808, 18 h, pH 7.2
M. luteus 1001 = conditions: Micrococcus luteus, 1001, 18 h, pH 7.2
B. subtilis PCI 219 = conditions: Bacillus subtilis, PCI219, 18 h, pH 7.2
E. coli Juhl A15119 = conditions: Escherichia coli, JUHLA15119, 18 h, pH 7.2
E. coli 255 = conditions: Escherichia coli, 255, 18 h, pH 7.2
K. pneumoniae PCI 602 = conditions: Klebsiella pneumoniae, PCI602, 18 h, pH 7.2
P. mirabilis IFO-2849 = conditions: Proteus mirabilis, IFO2849, 18 h, pH 7.2
M. morgani 1510 = conditions: 18 h, pH 7.2
M. morgani 1510/9 = conditions: 18 h, pH 7.2
P. rettgeri IPM-14 = conditions: Providencia rettgeri, IPM14, 18 h, pH 7.2
E. cloacae IPM-12 = conditions: Enterobacter cloacae, IPM12, 18 h, pH 7.2
S. marcescens IPM-15 = conditions: Serratia marcescens, IPM15, 18 h, pH 7.2
S. marcescens IPM-16 = conditions: Serratia marcescens, IPM16, 18 h, pH 7.2
C. freundii GN 7391 = conditions: Citrobacter freundii, GN7391, 18 h, pH 7.2
P. aeruginosa KKA 19 = conditions: Pseudomonas aeruginosa, KKA19, 18 h, pH 7.2
P. aeruginosa IPM-8 = conditions: Pseudomonas aeruginosa, IPM8, 18 h, pH 7.2
P. aeruginosa IPM-9 = conditions: Pseudomonas aeruginosa, IPM9, 18 h, pH 7.2
X. maltophilia GN 12873 = conditions: Stenotrophomonas maltophilia, GN12873, 18 h, pH 7.2
X. maltophilia No. 661 = conditions: Stenotrophomonas maltophilia, NO.661, 18 h, pH 7.2
P. cepacia No. 651 = conditions: Burkholderia cepacia, NO.651, 18 h, pH 7.2
C. terrigena IFO 12685 = conditions: 18 h, pH 7.2

## Nc1nc(/C(=N/O)C(=O)NC2C(=O)N3C(C(=O)O)=C(/C=C/COC(=O)c4ccc(O)c(O)c4)CSC23)cs1 (stereo not shown) [Id, 7-[(Z)-2-(2-Aminothiazol-4-yl)-2-hydroxyiminoacetamido]-3-[(E)-3l-(3,4-dihydroxybenzoyloxy)-1-propen-1-yl]-3-cephem-4-carboxylic acid]
S. epidermidis 11-1168
  MIC: 3.1 µg/mL (≈ 5.52 µM)
E. faecium A24817
  MIC: 100 µg/mL (≈ 178 µM)
P. vulgaris IPM-13
  MIC: > 100 µg/mL
P. aeruginosa A20599
  MIC: > 100 µg/mL
P. cepacia A21213
  MIC: > 100 µg/mL
S. aureus 209P
  MIC: 0.8 µg/mL (≈ 1.42 µM)
S. aureus Smith
  MIC: 0.8 µg/mL (≈ 1.42 µM)
S. aureus 4-1015 (MRSA)
  MIC: 6.3 µg/mL (≈ 11.2 µM)
S. aureus IPM-24 (MRSA)
  MIC: 100 µg/mL (≈ 178 µM)
S. epidermidis 11-1230
  MIC: 6.3 µg/mL (≈ 11.2 µM)
E. faecalis A9808
  MIC: 12.5 µg/mL (≈ 22.3 µM)
M. luteus 1001
  MIC: 0.2 µg/mL (≈ 0.356 µM)
B. subtilis PCI 219
  MIC: 0.4 µg/mL (≈ 0.712 µM)
E. coli Juhl A15119
  MIC: 0.2 µg/mL (≈ 0.356 µM)
E. coli 255
  MIC: 0.8 µg/mL (≈ 1.42 µM)
K. pneumoniae PCI 602
  MIC: 0.025 µg/mL (≈ 0.0445 µM)
P. mirabilis IFO-2849
  MIC: 0.2 µg/mL (≈ 0.356 µM)
M. morgani 1510
  MIC: 6.3 µg/mL (≈ 11.2 µM)
M. morgani 1510/9
  MIC: 0.2 µg/mL (≈ 0.356 µM)
P. rettgeri IPM-14
  MIC: 0.4 µg/mL (≈ 0.712 µM)
E. cloacae IPM-12
  MIC: > 100 µg/mL
S. marcescens IPM-15
  MIC: > 100 µg/mL
S. marcescens IPM-16
  MIC: > 100 µg/mL
C. freundii GN 7391
  MIC: 50 µg/mL (≈ 89 µM)
P. aeruginosa KKA 19
  MIC: > 100 µg/mL
P. aeruginosa IPM-8
  MIC: > 100 µg/mL
P. aeruginosa IPM-9
  MIC: > 100 µg/mL
X. maltophilia GN 12873
  MIC: > 100 µg/mL
X. maltophilia No. 661
  MIC: > 100 µg/mL
P. cepacia No. 651
  MIC: > 100 µg/mL
C. terrigena IFO 12685
  MIC: 0.8 µg/mL (≈ 1.42 µM)
